The values that follow come from ChEMBL document CHEMBL6096653, “α-GalCer sp2-iminoglycolipid analogs as CD1d-dependent iNKT modulators: Evaluation of their immunotherapeutic potential in murine models of asthma and autoimmune hepatitis” (Eur J Med Chem, 2025).

Series [1] concerns Splenocyte. Briefly: Immunostimulatory activity in Cd1d knockout BALB/c mouse Splenocyte assessed as effect on of IFNgamma level at 10 to 25 uM incubated for 48 hrs by ELISA analysis. To be noted: dose 10-25 µM. It is filed as functional, cell-based. For orientation: ELISA stands for enzyme-linked immunosorbent assay.
Series [2] concerns Splenocyte. The experiment in a line: Immunostimulatory activity in BALB/c mouse Splenocyte assessed as induction of IL-4 level at 25 uM incubated for 48 hrs by ELISA analysis. It is filed as functional, cell-based.
The test system of series [3] is Splenocyte. Briefly: Immunostimulatory activity in BALB/c mouse Splenocyte assessed as induction of IL-4 level at 10 to 25 uM incubated for 48 hrs by ELISA analysis. To be noted: dose 10-25 µM. It counts as functional, cell-based.
The test system of series [4] is Splenocyte. The experiment in a line: Immunostimulatory activity in BALB/c mouse Splenocyte assessed as induction of IFNgamma level at 25 uM incubated for 48 hrs by ELISA analysis. It counts as functional, cell-based.
Series [5] deals with Splenocyte. Briefly: Immunostimulatory activity in Cd1d knockout BALB/c mouse Splenocyte assessed as effect on of IL-4 level at 10 to 25 uM incubated for 48 hrs by ELISA analysis. It is filed as functional, cell-based. The following applies: dose 10-25 µM.
The subject of series [6] is Mus musculus. The experiment in a line: Immunostimulatory activity in Th1-biased (OT-1) C57BL/6 mouse model transplanted with mouse Splenocyte assessed as increase in OVA-specific CD8+ T cells proliferation at 1 to 400 ug, ip pretreated with compound and ovalbumin for 2 hrs and measured after 3 days by flow cytometry analysis. It is filed as functional, organism-based. The following applies: dose 1-400 µg, time 74.0 hrs. Background: A flow cytometer gives signals particle by particle.

Series [7] can be described thus: Toxicity in C57BL/6J mouse assessed as decrease in ALT level in serum at 20 microg/g, ip measured after 18 hrs. The following applies: in vivo, dose 20 µg/g. It counts as organism-based.
Series [8] relates to Mus musculus. The experiment in a line: Anti-asthmatic activity in alpha-Galcer-induced female BALB/c mouse model assessed as reduction in TNF-alpha mRNA level in lung at 20 microg/g ip measured after 24 hrs by RT-PCR analysis. It counts as functional, organism-based. The following applies: dose 20.0 µg/g.
The test system of series [9] is Mus musculus. Briefly: Anti-asthmatic activity in alpha-Galcer-induced female BALB/c mouse model assessed as reduction in Gob5 mRNA level in lung at 20 microg/g ip measured after 24 hrs by RT-PCR analysis. It counts as functional, organism-based. To be noted: dose 20.0 µg/g.
The test system of series [10] is Mus musculus. Briefly: Immunostimulatory activity in ip dosed Th1-biased (OT-1) C57BL/6 mouse model transplanted with mouse Splenocyte assessed as increase in OVA-specific CD8+ T cells proliferation pretreated with compound and ovalbumin for 2 hrs and measured after 3 days by flow cytometry analysis. It is filed as functional, organism-based. The following applies: dose 400.0 µg.

The test system of series [11] is Mus musculus. Briefly: Anti-asthmatic activity in alpha-Galcer-induced female BALB/c mouse model assessed as reduction in IL-6 mRNA level in lung at 20 microg/g ip measured after 24 hrs by RT-PCR analysis. It counts as functional, organism-based. The following applies: dose 20.0 µg/g.
In series [12] the test system is Mus musculus. The experiment in a line: Anti-asthmatic activity in alpha-Galcer-induced female BALB/c mouse model assessed as inhibition of airway hyperreactivity at 20 microg/g ip measured after 24 hrs. It counts as functional, organism-based. The following applies: dose 20.0 µg/g.
Series [13] deals with Splenocyte. Briefly: Immunostimulatory activity in BALB/c mouse Splenocyte assessed as induction of IFNgamma level at 10 to 25 uM incubated for 48 hrs by ELISA analysis. It is filed as functional, cell-based. The following applies: dose 10-25 µM.
Series [14] in a line: Toxicity in C57BL/6J mouse assessed as liver damage at 20 microg/g, ip measured after 18 hrs by H and E staining based analysis. It counts as organism-based. The following applies: in vivo, dose 20 µg/g.
Series [15] is described as follows: Toxicity in C57BL/6J mouse assessed as decrease in AST level in serum at 20 microg/g, ip measured after 18 hrs. It is filed as organism-based. To be noted: in vivo, dose 20 µg/g.
The subject of series [16] is Mus musculus. Briefly: Anti-asthmatic activity in alpha-Galcer-induced female BALB/c mouse model assessed as reduction in Muc5ac mRNA level in lung at 20 microg/g ip measured after 24 hrs by RT-PCR analysis. It counts as functional, organism-based. The following applies: dose 20.0 µg/g.
Series [17] relates to Mus musculus. The experiment in a line: Immunostimulatory activity in ip dosed Th1-biased (OT-1) C57BL/6 mouse model transplanted with mouse Splenocyte assessed as increase in OVA-specific CD8+ T cells proliferation pretreated with compound and ovalbumin for 2 hrs and measured after 2 days by flow cytometry analysis. It counts as functional, organism-based. The following applies: dose 400.0 µg, time 50.0 hrs.

In series [18] the test system is Mus musculus. Briefly: Immunostimulatory activity in Th1-biased (OT-1) C57BL/6 mouse model transplanted with mouse Splenocyte assessed as increase in OVA-specific CD8+ T cells proliferation at 1 to 400 ug, ip pretreated with compound and ovalbumin for 2 hrs and measured after 2 days by flow cytometry analysis. It counts as functional, organism-based. To be noted: dose 1-400 µg, time 50.0 hrs.

Series [19] relates to iNKT hybridoma DN3A4-1.2 cell. Briefly: Immunostimulatory activity in mouse iNKT hybridoma DN3A4-1.2 cell assessed as induction of IL-2 level at 10 to 25 uM incubated for 48 hrs by ELISA analysis. It is filed as functional, cell-based. The following applies: dose 10-25 µM.
For series [20], the system named is Mus musculus. Briefly: Anti-inflammatory activity in ConA-induced autoimmune hepatitis C57BL/6 mouse model assessed as reduction in IL-6 level in serum at 20 microg/g, ip pretreated with ConA for 18 hrs followed by compound addition and measured after 18 hrs. It counts as functional, organism-based. To be noted: dose 20.0 µg/g.
Series [21] deals with Mus musculus. Briefly: Anti-inflammatory activity in ConA-induced autoimmune hepatitis C57BL/6 mouse model assessed as reduction in TNF-alpha level in serum at 20 microg/g, ip pretreated with ConA for 18 hrs followed by compound addition and measured after 18 hrs. It counts as functional, organism-based. To be noted: dose 20.0 µg/g.
The subject of series [22] is iNKT hybridoma DN3A4-1.2 cell. Briefly: Immunostimulatory activity in mouse iNKT hybridoma DN3A4-1.2 cell assessed as induction of IL-2 secretion at 10 to 25 uM incubated for 48 hrs in presence of alpha-GalCer by ELISA analysis. It counts as functional, cell-based. The following applies: dose 10-25 µM.
Series [23] relates to Splenocyte. The experiment in a line: Cytotoxicity against mouse Splenocyte assessed as cell viability at 25 uM by AlamarBlue assay. It is filed as toxicity, cell-based. For orientation: The colour change of resazurin is a common sign of viable cells or microbes.

Molecules are shown by their SMILES. Active and inactive are the calls of the source. The rule behind the calls is not given here.

In the case of `CCCCCCCCCCCCCC[C@@H](O)[C@@H](O)[C@H](CO[C@@H]1[C@H](O)[C@@H](O)[C@@H](O)[C@H]2COC(=O)N21)n1cc(CCCCCCCCCCCC)nn1`, the result in series [1], in [4] and in [5] was inactive. The outcome in [2] and in [3] was Active.
For `CCCCCCCCCCCCCC[C@@H](O)[C@@H](O)[C@H](CO[C@@H]1[C@H](O)[C@@H](O)[C@@H](O)[C@H]2COC(=O)N21)n1cc(CCCCCCCC)nn1`, the outcome in series [6], in series [8], in [9], in series [11], in [12] and in series [13] was Active. The outcome in [2], in series [3], in series [16], in [4], in [18] and in series [19] was Active. In addition, the result in [20], in [21] and in series [22] was Active. The Activity result was “Non-toxic” in series [7]; “Dose-dependent-effect” in series [10]; “Non-toxic” in [14]; “Non-toxic” in [15]; “Dose-dependent-effect” in [17]. Further, the outcome in series [1] and in series [5] was inactive.
Regarding `CCCCCCCCCCCCCC[C@@H](O)[C@@H](O)[C@H](CO[C@@H]1[C@H](O)[C@@H](O)[C@@H](O)[C@H]2COC(=O)N21)n1cc(CCCC)nn1`, the outcome in series [4] was inactive.
Turning to `CCCCCCCCCCCCCC[C@@H](O)[C@@H](O)[C@H](CO[C@@H]1[C@H](O)[C@@H](O)[C@@H](O)[C@H]2COC(=O)N21)n1cc(CCCCCC)nn1`, the Activity result in series [23] was “Toxic”. Also, the outcome in series [1], in series [4] and in [5] was inactive. The outcome in series [2] and in series [3] was Active.
For the compound `CCCCCCCCCCCCCCCCCCCCCCCCCC(=O)N[C@@H](CO[C@@H]1[C@H](O)[C@@H](O)[C@@H](O)[C@H]2COC(=O)N21)[C@H](O)[C@H](O)CCCCCCCCCCCCCC`, the result in series [2], in series [4] and in [19] was inactive. In addition, the result in series [22] was Active.
Consider `CCCCCCCCCCCCCCCCCCCCCCCCCC(=O)N[C@@H](CO[C@@H]1[C@H](O)[C@@H](O)[C@H](O)[C@H]2COC(=O)N21)[C@H](O)[C@H](O)CCCCCCCCCCCCCC`, for which the outcome in series [2], in series [4] and in series [19] was inactive. Further, the result in series [22] was Active.
